IC50 data for one molecule are collected here from PMC2362650, “Phase I and pharmacokinetic study of the topoisomerase II catalytic inhibitor fostriecin” (British Journal of Cancer, 1999).

This assay has as its system GLC4/VM20x. Description: Microtiterwell tetrazolium growth-inhibition assay, medium with 40% pooled human plasma. The following applies: GLC4, 96 h; 4 days; medium with 40% human plasma; 95% CI 5.3-6.5. The assay is classed as cell-based. An excerpt: Fostriecin (CI-920) is a topoisomerase (topo) II catalytic activity inhibitor (Boritzki et al, 1988) (Figure 1). This novel class of topo II-targeting drugs is considered of potential value for treatment of patients with tumours resistant to classic topo II poisons, including anthracyclines and podophyllotoxins (Cummings and Smyth, 1993). The nuclear enzyme topo II is essential for the regulation of DNA conformation (reviewed in Osheroff et al, 1991). Central in its action is the formation of a complex with DNA. Stabilization of this complex by topo II poisons induces DNA damage and cell death (Froelich-Ammon and Osheroff, 1995). Decreased complex formation due to decreased topo II levels is considered to be an important mechanism of tumour-resistance to topo II poisons (Beck and Danks, 1991). The topo II catalytic inhibitor fostriecin is expected to have increased activity against tumour cells with low topo II levels and this was confirmed in in vitro studies (De Jong et al, 1991). […] Drug pharmacokinetics was analysed with high performance liquid chromatography with UV-detection. […] A metabolite, most probably dephosphorylated fostriecin, was detected in plasma and urine. […]

On to `C[C@@](O)(/C=C/[C@H]1CC=CC(=O)O1)[C@@H](C[C@@H](O)\C=C/C=C\C=C\CO)OP(=O)(O)O` [fostriecin], for which the IC50 came to 5.9 µM.

The term IC50 denotes the concentration needed to halve the response being measured.
